Here are results for four compounds from BindingDB's records for doi:10.1158/1535-7163.MCT-05-0442 (Celera Genomics, 2006).

Where only a bound is given, the exact number is not on record here.

The target of this experiment is Histone deacetylase 1 (Homo sapiens, UniProt Q13547). Nature of the experiment: HDAC Inhibition Assay. The note with it: pH 7.4; 22 °C. The method, then: HDAC activity was measured using a continuous trypsin-coupled assay. For inhibitor characterization, measurements were done using 96-well assay plates. Enzyme was mixed with inhibitor at various concentrations and allowed to incubate for 15 minutes. […] Reactions were monitored in a fluorescence plate reader. […] The increase in fluorescence with time was used as the measure of the reaction rate. Inhibition constants Ki(app) were obtained using the program BatchKi.
Sequence of Histone deacetylase 1 (Q13547 whole entry): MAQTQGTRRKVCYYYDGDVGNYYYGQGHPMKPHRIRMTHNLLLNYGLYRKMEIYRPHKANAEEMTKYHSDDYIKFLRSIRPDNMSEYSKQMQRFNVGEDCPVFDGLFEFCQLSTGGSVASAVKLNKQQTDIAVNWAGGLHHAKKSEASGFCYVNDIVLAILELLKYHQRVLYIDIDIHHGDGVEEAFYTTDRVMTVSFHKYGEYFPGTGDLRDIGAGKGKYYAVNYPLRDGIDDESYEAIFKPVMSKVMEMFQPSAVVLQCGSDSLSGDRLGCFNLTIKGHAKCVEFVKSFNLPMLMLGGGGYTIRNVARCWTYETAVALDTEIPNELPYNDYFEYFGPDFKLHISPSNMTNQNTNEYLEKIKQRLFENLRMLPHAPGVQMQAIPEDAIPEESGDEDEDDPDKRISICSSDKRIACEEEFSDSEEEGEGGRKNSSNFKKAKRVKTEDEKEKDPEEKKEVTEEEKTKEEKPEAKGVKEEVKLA
A word on the Ki: it is a dissociation constant, usually derived from enzyme kinetics or from competition with a known ligand. The compound `CN(C)Cc1c(C(=O)NCCOc2ccc(C(=O)O)cc2)oc2ccccc12` [4-[2-({3-[(dimethylamino)methyl]-1-benzofuran-2-yl}formamido)ethoxy]benzoic acid] returned a Ki of more than 50000 nM.

For the compound `O=C(NO)c1ccc(OCCNC(=O)c2ccc3ccccc3c2)cc1` [N-{2-[4-(hydroxycarbamoyl)phenoxy]ethyl}naphthalene-2-carboxamide], affinity was put at a Ki of 6 nM. This counts as single-digit nanomolar.

`O=C(NO)c1ccc(OCCNC(=O)c2ccccc2)cc1` [N-hydroxy-4-[2-(phenylformamido)ethoxy]benzamide] returned an inhibitory constant (Ki) of 43 nM.

The compound `O=C(NO)c1ccc(OCCNC(=O)c2cc3ccccc3o2)cc1` [N-{2-[4-(hydroxycarbamoyl)phenoxy]ethyl}-1-benzofuran-2-carboxamide] displayed a Ki of 4 nM.
